Assay results published in PMC3790268 (Bioorganic & medicinal chemistry letters, 2013).

Target: rat nNOS (Rattus norvegicus, UniProt P29476)
Settings: compared with (R,R)-16a, (S,S)-16b and (R)-6b

Cc1cc(N)nc(COC[C@@H](N)[C@H](C)OCc2cc(C)cc(N)n2)c1 [(S,R)-16c]
decreased affinity for nNOS: 10 fold
